Test system: bovine cardiac myofibrils
Experiment: Myofibril assay: PK/LDH-coupled steady-state ATPase activity of skinned bovine cardiac myofibrils
Format: biochemical
Details: Ca2+ activating to 75% of maximal rate
In short: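 Steady-state ATPase of detergent-skinned bovine left-ventricular myofibrils (1 mg/mL), PK/LDH-coupled NADH read at 340 nm, in PIPES/MgCl2 buffer pH 6.8 with 50 μM ATP, 0.6 mM EGTA and CaCl2 set for 50% or 75% activation. Inhibition of activity measured.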

Structure (SMILES)	CDMF75 IC15
COC(=O)N1CC2(C1)C(=O)N(c1ncc(Cl)cc1F)CC(=O)N2[C@@H](C)c1ccc(C(F)(F)F)cc1 [Compound 615, methyl (S)-8-(5-chloro-3-fluoropyridin-2-yl)-6,9-dioxo-5-(1-(4-(trifluoro-methyl)phenyl)ethyl)-2,5,8-triazaspiro[3.5]-nonane-2-carboxylate]	1.3 µM
C[C@H](c1ccc(Cl)cc1)N1C(=O)CN(c2ncc(Cl)cc2F)C(=O)C12CC2 [Compound 616, (R)-7-(5-chloro-3-fluoro-pyridin-2-yl)-4-(1-(4-chlorophenyl)ethyl)-4,7-diazaspiro[2.5]octane-5,8-dione]	11.85 µM
C[C@@H](c1ccc(C(F)(F)F)cc1)N1C(=O)CN(c2ncc(Cl)cc2F)C(=O)C12CN(C=O)C2 [Compound 620, (S)-8-(5-chloro-3-fluoro-pyridin-2-yl)-6,9-dioxo-5-(1-(4-(trifluoromethyl)-phenyl)ethyl)-2,5,8-triazaspiro[3.5]nonane-2-carbaldehyde]	1.8 µM
CC1(C2C(=O)N(c3ncc(Cl)cc3F)CC(=O)N2Cc2ccc(C(F)(F)F)cc2)COC1 (stereo not drawn) [Compound 623, 1-(5-chloro-3-fluoropyridin-2-yl)-3-(3-methyloxetan-3-yl)-4-(4-(trifluoro-methyl)-benzyl)piperazine-2,5-dione]	3.0 µM
CC1(C2C(=O)N(c3ncc(Cl)cc3F)CC(=O)N2Cc2ccc(Cl)cc2)COC1 (stereo not drawn) [Compound 624, 1-(5-chloro-3-fluoropyridin-2-yl)-4-(4-chlorobenzyl)-3-(3-methyloxetan-3-yl)-piperazine-2,5-dione]	2.0 µM
CC(=O)NC[C@H]1C(=O)N(c2ncc(Cl)cc2F)CC(=O)N1Cc1ccc(C(F)(F)F)cc1 [Compound 625, (S)-N-((4-(5-chloro-3-fluoropyridin-2-yl)-3,6-dioxo-1-(4-(trifluoro-methyl)benzyl)piperazin-2-yl)methyl)acetamide]	14.5 µM
CC(=O)NC[C@@H]1C(=O)N(c2ncc(Cl)cc2F)CC(=O)N1Cc1ccc(C(F)(F)F)cc1 [Compound 626, (R)-N-((4-(5-chloro-3-fluoropyridin-2-yl)-3,6-dioxo-1-(4-(trifluoro-methyl)benzyl)piperazin-2-yl)methyl)acetamide]	>39 µM
CC(=O)NCC1C(=O)N(c2ncc(Cl)cc2F)CC(=O)N1Cc1ccc(C(F)(F)F)cc1 (stereo not drawn) [Compound 629, N-((4-(5-chloro-3-fluoro-pyridin-2-yl)-3,6-dioxo-1-(4-(trifluoromethyl)-benzyl)piperazin-2-yl)-methyl)acetamide]	32.4 µM
CC(=O)NCC1(C)C(=O)N(c2ncc(Cl)cc2F)CC(=O)N1Cc1ccc(Cl)cc1 (stereo not drawn) [Compound 631, N-((4-(5-chloro-3-fluoro-pyridin-2-yl)-1-(4-chloro-benzyl)-2-methyl-3,6-dioxopiperazin-2-yl)-methyl)acetamide]	17.3 µM
CC(=O)NCC1C(=O)N(c2ncc(Cl)cc2F)CC(=O)N1Cc1ccc(Cl)cc1 (stereo not drawn) [Compound 632, N-((4-(5-chloro-3-fluoro-pyridin-2-yl)-1-(4-chloro-benzyl)-3,6-dioxopiperazin-2-yl)methyl)acetamide]	31.7 µM
O=C1C(C2COC2)N(Cc2ccc(Cl)cc2)C(=O)CN1c1ncc(Cl)cc1F (stereo not drawn) [Compound 633, 1-(5-chloro-3-fluoropyridin-2-yl)-4-(4-chlorobenzyl)-3-(oxetan-3-yl)piperazine-2,5-dione]	1.3 µM
CC1(C(F)F)C(=O)N(c2ncc(Cl)cc2F)CC(=O)N1Cc1ccc(Cl)cc1 (stereo not drawn) [Compound 636, 1-(5-chloro-3-fluoropyridin-2-yl)-4-(4-chlorobenzyl)-3-(difluoromethyl)-3-methylpiperazine-2,5-dione]	1.3 µM
O=C1C(CC2COC2)N(Cc2ccc(C(F)(F)F)cc2)C(=O)CN1c1ncc(Cl)cc1F (stereo not drawn) [Compound 639, 1-(5-chloro-3-fluoropyridin-2-yl)-3-(oxetan-3-ylmethyl)-4-(4-(trifluoromethyl)-benzyl)piperazine-2,5-dione]	1.4 µM
O=C1C(CC2COC2)N(Cc2ccc(Cl)cc2)C(=O)CN1c1ncc(Cl)cc1F (stereo not drawn) [Compound 640, 1-(5-chloro-3-fluoropyridin-2-yl)-4-(4-chlorobenzyl)-3-(oxetan-3-ylmethyl)-piperazine-2,5-dione]	1.6 µM
CNC(=O)N1CC(C2C(=O)N(c3ncc(Cl)cc3F)CC(=O)N2Cc2ccc(C(F)(F)F)cc2)C1 (stereo not drawn) [Compound 641, 3-(4-(5-chloro-3-fluoro-pyridin-2-yl)-3,6-dioxo-1-(4-(trifluoromethyl)-benzyl)piperazin-2-yl)-N-methylazetidine-1-carboxamide]	12.2 µM
CNC(=O)N1CC(C2C(=O)N(c3ncc(Cl)cc3F)CC(=O)N2Cc2ccc(Cl)cc2)C1 (stereo not drawn) [Compound 642, 3-(4-(5-chloro-3-fluoro-pyridin-2-yl)-1-(4-chloro-benzyl)-3,6-dioxopiperin-2-yl)-N-methylazetidine-1-carboxamide]	10.9 µM
CC(=O)N1CC(C2C(=O)N(c3ncc(Cl)cc3F)CC(=O)N2Cc2ccc(C(F)(F)F)cc2)C1 (stereo not drawn) [Compound 643, 3-(1-acetylazetidin-3-yl)-1-(5-chloro-3-fluoropyridin-2-yl)-4-(4-(trifluoro-methyl)benzyl)piperazine-2,5-dione]	5.8 µM

Structure (SMILES)	CDMF75 IC15
CC(=O)N1CC(C2C(=O)N(c3ncc(Cl)cc3F)CC(=O)N2Cc2ccc(Cl)cc2)C1 (stereo not drawn) [Compound 644, 3-(1-acetylazetidin-3-yl)-1-(5-chloro-3-fluoropyridin-2-yl)-4-(4-chlorobenzyl)-piperazine-2,5-dione]	6.8 µM
Cc1cc(Cl)cnc1N1CC(=O)N(Cc2ccc(C(F)(F)F)cc2)C(C2COC2)C1=O (stereo not drawn) [Compound 645, 1-(5-chloro-3-methylpyridin-2-yl)-3-(oxetan-3-yl)-4-(4-(trifluoromethyl)benzyl)-piperazine-2,5-dione]	5.8 µM
O=C1C(C2COC2)N(Cc2ccc(F)cc2)C(=O)CN1c1ncc(Cl)cc1F (stereo not drawn) [Compound 646, 1-(5-chloro-3-fluoropyridin-2-yl)-4-(4-fluorobenzyl)-3-(oxetan-3-yl)piperazine-2,5-dione]	3.3 µM
O=C1C(C2COC2)N(Cc2ccc(F)c(F)c2)C(=O)CN1c1ncc(Cl)cc1F (stereo not drawn) [Compound 647, 1-(5-chloro-3-fluoropyridin-2-yl)-4-(3,4-difluorobenzyl)-3-(oxetan-3-yl)piperazine-2,5-dione]	2.1 µM
O=C1C(C2COC2)N(Cc2ccc(Cl)c(F)c2)C(=O)CN1c1ncc(Cl)cc1F (stereo not drawn) [Compound 648, 4-(4-chloro-3-fluorobenzyl)-1-(5-chloro-3-fluoropyridin-2-yl)-3-(oxetan-3-yl)-piperazine-2,5-dione]	2.0 µM
O=C1C(C2COC2)N(Cc2ccc(C(F)(F)F)c(F)c2)C(=O)CN1c1ncc(Cl)cc1F (stereo not drawn) [Compound 649, 1-(5-chloro-3-fluoropyridin-2-yl)-4-(3-fluoro-4-(trifluoromethyl)benzyl)-3-(oxetan-3-yl)piperazine-2,5-dione]	2.9 µM
O=C1C(C2COC2)N(Cc2ccc(C(F)F)cc2)C(=O)CN1c1ncc(Cl)cc1F (stereo not drawn) [Compound 650, 1-(5-chloro-3-fluoropyridin-2-yl)-4-(4-(difluoro-methyl)benzyl)-3-(oxetan-3-yl)piperazine-2,5-dione]	2.5 µM
Cc1cc(Cl)cnc1N1CC(=O)N(Cc2ccc(C(F)(F)F)cc2)C(CC2COC2)C1=O (stereo not drawn) [Compound 651, 1-(5-chloro-3-methylpyridin-2-yl)-3-(oxetan-3-ylmethyl)-4-(4-(trifluoromethyl)-benzyl)piperazine-2,5-dione]	7.3 µM
Cc1cc(Cl)cnc1N1CC(=O)N(Cc2ccc(C(F)(F)F)cc2)C(C2(C)COC2)C1=O (stereo not drawn) [Compound 652, 1-(5-chloro-3-methylpyridin-2-yl)-3-(3-methyloxetan-3-yl)-4-(4-(trifluoromethyl)-benzyl)piperazine-2,5-dione]	9.0 µM
CC(=O)N1CC(C2C(=O)N(c3ncc(Cl)cc3C)CC(=O)N2Cc2ccc(C(F)(F)F)cc2)C1 (stereo not drawn) [Compound 653, 3-(1-acetylazetidin-3-yl)-1-(5-chloro-3-methylpyridin-2-yl)-4-(4-(trifluoromethyl)-benzyl)piperazine-2,5-dione]	19.9 µM
Cc1cc(Cl)cnc1N1CC(=O)N(Cc2ccc(Cl)cc2)C(C2COC2)C1=O (stereo not drawn) [Compound 654, 1-(5-chloro-3-methylpyridin-2-yl)-4-(4-chlorobenzyl)-3-(oxetan-3-yl)piperazine-2,5-dione]	5.3 µM
Cc1cc(Cl)cnc1N1CC(=O)N(Cc2ccc(Cl)cc2)C(CC2COC2)C1=O (stereo not drawn) [Compound 655, 1-(5-chloro-3-methylpyridin-2-yl)-4-(4-chlorobenzyl)-3-(oxetan-3-ylmethyl)-piperazine-2,5-dione]	7.0 µM
CC1(CCC(N)=O)C(=O)N(c2ncc(Cl)cc2F)CC(=O)N1Cc1ccc(C(F)(F)F)cc1 (stereo not drawn) [Compound 656, 3-(4-(5-chloro-3-fluoro-pyridin-2-yl)-2-methyl-3,6-dioxo-1-(4-(trifluoro-methyl)benzyl)piperazin-2-yl)propanamide]	9.9 µM
CC1(C(F)F)C(=O)N(c2ncc(Cl)cc2F)CC(=O)N1Cc1ccc(C(F)(F)F)cc1 (stereo not drawn) [Compound 657, 1-(5-chloro-3-fluoropyridin-2-yl)-3-(difluoromethyl)-3-methyl-4-(4-(trifluoro-methyl)-benzyl)piperazine-2,5-dione]	1.4 µM
Cc1cc(Cl)cnc1N1CC(=O)N(Cc2ccc(Cl)cc2)[C@@H](C(C)C)C1=O [Compound 660, (S)-1-(5-chloro-3-methylpyridin-2-yl)-4-(4-chlorobenzyl)-3-isopropyl-piperazine-2,5-dione]	0.84 µM
CC(=O)N1CC(CC2C(=O)N(c3ncc(Cl)cc3F)CC(=O)N2Cc2ccc(C(F)(F)F)cc2)C1 (stereo not drawn) [Compound 661, 3-((1-acetylazetidin-3-yl)methyl)-1-(5-chloro-3-fluoropyridin-2-yl)-4-(4-(trifluoromethyl)benzyl)-piperazine-2,5-dione]	17.0 µM
